Assays:
[1] = test system: hPSCs (NK cell production); conditions: 28-day period, prior studies; cited from earlier work
[2] = test system: CD34+CD43+ hPSC-derived HPs; assay: Proliferation and cell cycle (BrdU assay, Ki67 staining) in HP expansion cultures; format: cell-based, human
Method: (§1) For apoptosis detection, cells were stained with CD34-FITC, CD45-BV421, and CD43-APC (BD Pharmingen), along with PI and Annexin V-PE (BD Pharmingen), and analyzed by flow cytometry. To assess proliferation of hematopoietic progenitors, using cell proliferation antigen Ki-67, cells were incubated with CD34-PE, CD43-BV421 (BD Pharmingen), and Ghost violet 540 cell viability dye (TONBO Biosciences). Cells were then fixed and permeabilized with 70% ethanol, and stained with Ki67-APC (Miltenyi Biotech), according to the manufacturer protocol, and analyzed by flow cytometry. Cell cycle analysis of total hematopoietic progenitors was carried out using the FITC BrdU flow kit (BD Pharmingen), following manufacturer recommendations. On day four of HP expansion in HSC or lymphoid expansion conditions and on day 3 of NK differentiation cells were labelled with BrdU. After 24 hours, samples were collected and incubated with CD34-PE, CD43-BV421 (BD Pharmingen), and CD45-APC (Miltenyi Biotech); CD34-PE or 34 PerCP, CD45-BV421 (BD Pharmingen), and CD41a-APC (Miltenyi Biotech); CD45-BV421, CD7-PE, and CD34-APC (BD Pharmingen); or CD45-BV421 and CD56-APC (BD Pharmingen), and then counterstained with Ghost violet 540 cell viability dye (TONBO Biosciences). This was followed by fixation, permeabilization, and a 1 hour incubation with DNase at 37° C., to expose incorporated BrdU. After washing, cells were stained first with anti BrdU-FITC, followed by 7AAD, and flow cytometry was performed. CD34^+CD43^+CD45^+ and CD34^+CD43^+CD45^+CD41a^+ hematopoietic progenitors, CD34^+CD45^+CD7^+, lymphoid progenitors, or CD45^+CD56^+ NK cells were then analyzed for cell cycle kinetics and proliferation, through BrdU incorporation.

[3] = test system: CD34+CD43+ hPSC-derived HPs; assay: Expansion of hPSC-derived hematopoietic progenitors in HSC expansion conditions (flow cytometry); format: cell-based, human
Text: To understand the effect of UM171 on hPSC-derived HPs and provide mechanistic insight on its action, we performed hematopoietic differentiation of H1 hESCs in defined feeder- and serum-free defined conditions for 9 days to generate HPs^10. We then cultured the cells in SFEM medium supplemented with cytokines that support expansion of HSCs (TPO, SCF, FLT3L, IL3 and IL6), and with UM171 or DMSO (negative control) (FIG. 1A). […] Overall, cultures with UM171 generated up to 10-fold higher numbers of CD34^+CD43^+CD45^+ HPs, as compared to control cultures.
Hematopoietic progenitors from Day 9 differentiation cultures were expanded in StemSpan™-SFEM (Stem Cell Technologies), supplemented with 35 nM UM171 (Xcess Biosciences), or equivalent volume of DMSO, and 100 ng/ml TPO, 100 ng/ml SCF, 100 ng/ml FLT3L, 50 ng/ml IL-6, and 10 ng/ml IL-3. Expansion cultures were supplemented with fresh StemSpan™-SFEM (Stem Cell Technologies) media with the same cytokine concentrations, every 3 days. Cells were plated at up to 150,000 cells/ml. At day 5 or indicated time points, cells were collected for flow cytometric (FCM) analysis and CFU assay. […]

CD34+CD235+CD41a+ cells = assay: RNAseq analysis of CD34+CD235+CD41a+ cells expanded in HSC expansion conditions; format: cell-based, human
Method: To analyze changes in molecular profile induced by UM171, we isolated CD34^+CD235^+CD41a^+ cells on day 9 of differentiation, cultured them in HSC expansion conditions with UM171 or DMSO for 16 hours and 5 days, and then performed RNAseq analysis of expanded cells.
Total RNA was isolated using RNeasy Micro Kit (Qiagen) and subjected to DNase digestion, according to the manufacturer's protocol. Isolated RNAs were used for either quantitative RT-PCR or RNA sequencing. RNA purity and integrity was evaluated by capillary electrophoresis on the Bioanalyzer 2100 (Agilent Technologies, Santa Clara, Calif.). […] Final sample libraries were quantitated with the Life Technologies Qubit fluorometer and sequenced on the Illumina HiSeq 3000 (SY-401-3001). […] Following quality assessment and filtering for adapter molecules and other sequencing artifacts, the sequencing reads were aligned to transcript sequences corresponding to hg19 human genome annotation. Bowtie v 1.1.2 was used allowing two mismatches in a 25 bp seed and excluding reads with more than 200 alignments^25. RSEM v 1.3.0 was used to estimate isoform or gene relative expression levels in units of “transcripts per million” (tpm), as well as posterior mean estimate of the “expected counts” (the non-normalized absolute number of reads assigned by RSEM to each isoform/gene)^26,27. […]

[4] = test system: CD34+CD45+CD7+ progenitors; assay: BrdU cell cycle analysis in NK differentiation cultures; format: cell-based, human; conditions: lymphoid stage of NK differentiation
Method: as §1, with “After 24 hours, samples were collected and incubated with CD34-PE, CD43-BV421 (BD Pharmingen), and CD45-APC (Miltenyi Biotech); CD34-PE or 34 PerCP, CD45-BV421 (BD Pharmingen), and CD41a-APC (Miltenyi Biotech); CD45-BV421, CD7-PE, and CD34-APC (BD Pharmingen); or CD45-BV421 and CD56-APC (BD Pharmingen), and then counterstained with Ghost violet 540 cell viability dye (TONBO Biosciences). This was followed by fixation, permeabilization, and a 1 hour incubation with DNase at 37° C., to expose incorporated BrdU. After washing, cells were stained first with anti BrdU-FITC, followed by 7AAD, and flow cytometry was performed.” left out

[5] = test system: CD34+CD43+ hPSC-derived HPs; assay: Apoptosis by annexin V assay in HP expansion cultures; format: cell-based, human; conditions: 5 days of expansion, UM171 vs DMSO
Method: as §1, with “After 24 hours, samples were collected and incubated with CD34-PE, CD43-BV421 (BD Pharmingen), and CD45-APC (Miltenyi Biotech); CD34-PE or 34 PerCP, CD45-BV421 (BD Pharmingen), and CD41a-APC (Miltenyi Biotech); CD45-BV421, CD7-PE, and CD34-APC (BD Pharmingen); or CD45-BV421 and CD56-APC (BD Pharmingen), and then counterstained with Ghost violet 540 cell viability dye (TONBO Biosciences). This was followed by fixation, permeabilization, and a 1 hour incubation with DNase at 37° C., to expose incorporated BrdU. After washing, cells were stained first with anti BrdU-FITC, followed by 7AAD, and flow cytometry was performed.” left out

[6] = test system: hPSC-derived HPs (CFC potential); assay: Methylcellulose colony forming assay of expanded HPs; format: cell-based, human
Method: Hematopoietic colony forming potential was assessed by combining cells of interest with 1.5 ml serum containing H4436 Methocult (Stem Cell Technologies). Cell suspensions were then transferred to 35-mm dishes and cultured for 12-14 days at 37° C. Hematopoietic colonies were scored according to cellular morphology, and CFC numbers were normalized to the number of cells plated (CFCs/10^4) cells.

[7] = test system: hPSC-derived HPs (NK cell production); assay: NK cell differentiation of hPSC-derived HPs on OP9-DLL4; format: cell-based, human
Text: To assess the effect of UM171 on NK cell differentiation, we collected HPs from hPSC cultures on day 9 of differentiation, and cultured them on OP9-DLL4, with or without UM171, as shown in FIG. 5A. After 14 days, these cultures generated CD56^+ NK cells that expressed CD94 and CD16, markers of mature NK cells. Although UM171 had no effect on the percentages of NK cells or their phenotype, the absolute numbers of NK cells generated with UM171 were approximately 10-fold higher as compare to DMSO controls (FIG. 5B-D). […] Similar findings were obtained with HPs generated from H9 hESCs and the IISH2i-BM9 iPSC line that was derived from bone marrow mononuclear cells (FIG. 9).
NK differentiation of hematopoietic progenitor cells was performed in α-MEM (Gibco), supplemented with 20% FBS (HyClone), on mouse OP9-DLL4 expressing feeder layer, in two stages. In stage 1, hematopoietic progenitor cells were cultured for 7 days on OP9-DLL4, with 100 ng/ml FLT3L, 40 ng/ml SCF, and 5 ng/ml IL-7 (Peprotech), and 35 nM UM171 or equivalent volume DMSO. Cells were then transferred to fresh α-MEM media, supplemented with 10 ng/ml Il-2 and 5 ng/ml IL-15 (Peprotech), and with or without UM171 treatment. Media was topped up with one volume fresh media, every 3-4 days, and cultures were transferred to new OP9-DLL4 cells, every 7 days. After 14 to 21 days, cells were harvested for flow cytometry and other analyses. OP9-DLL4 were used at 75-80% confluency.

[8] = 5 days of expansion, UM171 vs DMSO

In the case of CC(C)n1cnc2c(NCCc3ccc(O)cc3)nc(-c3csc4ccccc34)nc21 [SR1], the “fold increase in NK cell output” value [1] is given as “up to 2 fold”.

With Cn1nnc(-c2ccc3c(c2)[nH]c2nc(Cc4ccccc4)nc(NC4CCC(N)CC4)c23)n1 (stereo not shown) [UM171] the “cell cycle distribution of HPs” value [2, 8] was “predominantly increases the proportion of HPs in the early S phase”, the “proliferation of HPs by BrdU assay and Ki67 staining” value [2, 8] was “increased proliferation” and the “proportions of CD41a(lo) and CD41a(hi) cells within BrdU+ fraction” value ([2]; UM171 expansion cultures) was “approximately equal proportions”. For the same compound, the “fold higher frequency of proliferating CD41a(lo) HPs as compared to DMSO control” value ([2]; within BrdU+ fraction, CD34+CD45+ gated, 5 days of expansion) was “up to 7 fold”, the “fold higher numbers of CD34+CD43+CD45+ HPs as compared to control cultures” value ([3]; 35 nM UM171 vs DMSO, H1 hESC-derived day 9 HPs, SFEM with TPO, SCF, FLT3L, IL3, IL6) was “up to 10 fold” and the “CD201 expression in CD34+CD45+ HPs” value ([3]; HSC expansion conditions, 35 nM UM171) was “induction of CD201 expression”. The “expression of aryl-hydrocarbon receptor target genes” value (CD34+CD235+CD41a+ cells; UM171 vs DMSO, 16 hours and 5 days) was “did not affect”, the “AHR and AHRR expression” value (CD34+CD235+CD41a+ cells; hPSC-derived HPs) was “minimal effect” and the “proportion of proliferating CD34+CD45+CD7+ progenitors” value [4] was “increases the proportion of proliferating”. The “number of apoptotic, especially late apoptotic (AnnexinV+PI+) cells” value [5] was “decreased number of apoptotic”, the “number of viable cells” value [5] was “increased number of viable cells” and the “effect on CFC potential of expanded cells” value ([6]; HPs expanded 5 and 7 days with UM171 vs DMSO) was “most dramatic effect on G-CFCs”. For the same compound, the “share of G-CFCs in the CD34+CD41a(lo)CD45+ progenitor population” value ([6]; UM171 cultures with HSC expansion cytokines) was over 50%, the “fold higher absolute numbers of NK cells as compared to DMSO controls” value ([7]; 35 nM UM171, after 14 days on OP9-DLL4) was “approximately 10 fold” and the “stage of NK differentiation at which addition has an effect” value ([7]; added during first 7 or final 7-14 days) was “only when added during the first 7 days”. The “percentages of NK cells or their phenotype” value ([7]; after 14 days on OP9-DLL4, UM171 vs DMSO) was “no effect”, the “fold increase in NK cell output” value ([7]; lymphoid cultures on OP9-DLL4 with SCF, FLT3L, IL7, 14-day period) was “up to 10 fold” and the “fold increase in NK and T cell output” value ([7]; lymphoid cultures on OP9-DLL4 with SCF, Flt-3, IL7) was “up to 10 fold”.

— patent publication US20200063104A1, “EXPANSION OF HPSC-DERIVED GRANULOCYTIC AND LYMPHOID PROGENITORS WITH UM171” (Wisconsin Alumni Research Foundation, priority 2018, published 2020)
